The source of these data is ChEMBL document CHEMBL5729152, “Lysyl oxidase-like 2 inhibitors and uses thereof” (2022).

Molecules are shown by their SMILES. A value given as a limit tells only on which side of the number the result lay.

This experiment concerns the target T1, Lysyl oxidase homolog 2 (Homo sapiens, UniProt Q9Y4K0).
T1 sequence (Q9Y4K0 whole entry): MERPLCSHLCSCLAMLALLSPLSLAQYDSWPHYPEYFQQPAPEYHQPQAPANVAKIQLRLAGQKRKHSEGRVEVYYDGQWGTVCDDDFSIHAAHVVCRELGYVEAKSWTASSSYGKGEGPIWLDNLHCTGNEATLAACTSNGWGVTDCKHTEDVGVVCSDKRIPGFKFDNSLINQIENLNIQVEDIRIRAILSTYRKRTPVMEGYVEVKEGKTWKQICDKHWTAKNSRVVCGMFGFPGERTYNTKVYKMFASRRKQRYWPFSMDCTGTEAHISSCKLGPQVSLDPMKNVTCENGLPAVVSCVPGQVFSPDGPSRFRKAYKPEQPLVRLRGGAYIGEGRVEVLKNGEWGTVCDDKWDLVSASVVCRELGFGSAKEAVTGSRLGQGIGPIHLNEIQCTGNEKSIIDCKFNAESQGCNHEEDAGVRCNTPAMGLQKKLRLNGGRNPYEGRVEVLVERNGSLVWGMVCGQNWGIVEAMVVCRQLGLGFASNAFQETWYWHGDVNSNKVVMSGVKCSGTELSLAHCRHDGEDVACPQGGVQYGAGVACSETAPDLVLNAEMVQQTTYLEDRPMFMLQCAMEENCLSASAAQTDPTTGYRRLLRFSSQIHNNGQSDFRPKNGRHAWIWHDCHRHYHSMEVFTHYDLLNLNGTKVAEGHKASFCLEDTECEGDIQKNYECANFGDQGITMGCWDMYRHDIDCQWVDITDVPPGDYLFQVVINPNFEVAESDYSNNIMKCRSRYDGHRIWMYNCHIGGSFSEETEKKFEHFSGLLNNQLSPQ
The experiment in a line: Human LOXL2 Amine Oxidase Activity Assay: LOXL2 amine oxidase activity is evaluated by measuring Amplex Red fluorescence using 10-20× concentrated conditioned media from CHO cells stably expressing human LOXL2. To assay for amine oxidase activity, 10 μL of the concentrated conditioned media is incubated with 2 μL of test compound in DMSO and 73 μL Assay Buffer (50 mM Borate Buffer, pH8) for 2 h at 37° C. After the 2 h incubation, 5 μl of 10 mM 1,5-Diaminopentane (DAP) diluted in Assay Buffer and 10 μl of Amplex Red Mix (8.5 μl Assay Buffer+0.5 μl of 10 mM Amplex Red+1 μl of 500 U/ml Horseradish Peroxidase) are added and the plate mixed and immediately placed on the FlexStaion for fluorescence measurements. Fluorescence is read in kinetic mode every 2 min for 1 hour at excitation=544 and emission=590. The amine oxidase activity is calculated from the slope of the linear portion of the curve.

Regarding `CCN1CCN(Cc2ccc(CNC(=O)c3cccc(Oc4cc(CN)ccn4)c3)cc2)CC1`, the IC50 was under 300 nM.

On to `NCc1ccnc(C(=O)NCc2ccccc2)c1`, for which the IC50 is under 300 nM.

By IC50 is commonly meant the concentration that gives 50% inhibition.
